“Also recorded” adds a separate entry of the source. Marks after values point to notes of the source that are not given here.
Assays:
[1] = test system: Drosophila melanogaster; test: Toxicity assay, survival of larvae to adults (simple treatment)
Protocol: Toxicity was assayed according to our standard protocols. […] Tested groups consisted of larvae fed with Drosophila Instant Medium (Formula 4–24, Carolina Biological Supply, Burlington, NC, USA) supplemented with the assessed compounds concentrations. Emerging adults of all groups were counted and toxicity was determined as the percentage of hatched individuals in each treatment compared with the negative control.

[2] = test system: human umbilical endothelial cells; details: 30 mM GLU; cited from earlier work
[3] = test system: HL-60 cells; test: Cytotoxicity assay, Trypan blue exclusion test; format: cell-based, human; details: HL-60, 72 h
Protocol: Promyelocytic human leukaemia (HL-60) immortal cells originated from a person suffering myeloid leukaemia were grown as suspension cultures in RPMI-1640 medium ([…], Sigma-Aldrich, St. Louis, MO, USA) supplemented with 10% heat-inactivated foetal bovine serum (S01805, Linus, Madrid, Spain), L-glutamine 2 mM (G7513, Sigma-Aldrich, St. Louis, MO, USA) and 1× antibiotic-antimycotic solution from a 100× stock solution containing 10,000 units of penicillin, 10 mg of streptomycin and 25 μg of amphotericin B per mL ([…], Sigma-Aldrich, St. Louis, MO, USA). Cells were incubated at 37 °C in a 80% humidified atmosphere 5% CO2. Cultures were plated at 2.5 × 10^4 cells/mL density in 10 mL culture bottles and passed every 2 days. Trypan blue exclusion test was used to determine the cell viability exerted by the assayed compounds, according to our standard procedures. […] After culture, cells were stained with a 1:1 volume ratio of Trypan blue dye (T8154, Sigma-Aldrich, St. Louis, MO, USA) and counted in a Neubauer chamber at 100× magnification. The survival percentage of each treatment compared with the control was recorded in three independent replicates. Data are expressed as mean ± standard deviation of the mean (SEM).

[4] = test system: HL-60 cells; test: Internucleosomal DNA fragmentation; format: cell-based, human; details: HL-60, 5 h, all tested concentrations
Protocol: DNA fragmentation induction was determined as described by Anter et al. (2014). […] After treatment, genomic DNA was extracted using a commercial kit (Blood Genomic DNA Extraction Mini Spin Kit, Canvax Biotech, Córdoba, Spain). Then, DNA was incubated overnight with RNase at 37 °C and quantified in a spectrophotometer (Nanodrop® ND-1000, NanoDrop Technologies, Inc., Wilmington, DE, USA). Finally, 1200 ng DNA were electrophoresed in a 2% agarose gel for 120 min at 50 V, stained with ethidium bromide and visualized under UV light. The apoptosis process is recognised by the appearance of internucleosomal DNA fragments that are multiple of 200 base pairs.

[5] = test system: Sat-α repetitive sequences of HL-60 cells; test: Methylation status by qMSP, Sat-α; format: cell-based, human; details: HL-60, 5 h
Protocol: (§1) Then, DNA was extracted similarly to previously described DNA fragmentation assay. After that, the DNA was converted with bisulphite (EZ DNA Methylation-Gold™ Kit, Zymo Research, Irvine, CA, USA). Bisulphite-modified DNA was used for fluorescence-based real-time quantitative Methylation-Specific PCR (qMSP) using 5 µM of each forward and reverse primer (Isogen Life Science BV, Utrecht, The Netherlands), 2 µL of iTaq™ Universal SYBR® Green Supermix (Bio-Rad Laboratories, Inc., Hercules, CA, USA); it contains antibody-mediated hot-start iTaq DNA polymerase, dNTPs, MgCl2, SYBR® Green I dye, enhancers, stabilizers and a blend of passive reference dyes including ROX and fluorescein) and 25 ng of bisulphite converted genomic DNA.
(§2) PCR conditions included initial denaturalisation at 95 °C for 3 min and amplification which consisted of 45 cycles at 95 °C for 10 s, 60 °C for 15 s and 72 °C for 15 s, taking picture at the end of each elongation cycle. After that, melting curve was determined increasing 0.5 °C each 0.05 s from 60 °C to 95 °C and taking pictures.
(§3) QMSP was carried out in 48 well plates in MiniOpticon Real-Time PCR System (MJ Mini Personal Thermal Cycler, Bio-Rad) and were analysed by Bio-Rad CFX Manager 3.1 Software. The housekeeping Alu-C4 was used as a reference to correct for total DNA input. […] Each sample was analysed in triplicate. […]

[6] = test system: Alu M1 repetitive sequences of HL-60 cells; test: Methylation status by qMSP, Alu M1; format: cell-based, human; details: HL-60, 5 h, 11 mM GLU
Protocol: as §1, §2, §3

[7] = test system: Drosophila; details: cited from earlier work
[8] = test system: calf thymus DNA; set-up: method as in PMID 11787620; details: 5–20 mM TAU; cited from earlier work
[9] = test system: CHO cells; set-up: method as in PMID 7588651; details: 1 mM TAU; cited from earlier work
[10] = test system: Drosophila melanogaster; test: Genotoxicity, wing spot test (SMART); details: simple treatment; for Large Simple Spots (>2 Cells) m = 5 / Small Single Spots (1–2 Cells) m = 2 / Total Spots m = 2: No. of spots in parentheses
Protocol: The wing spot test was performed to evaluate genotoxicity assays following the standard procedure [14]. Briefly, trans-heterozygous larvae for mwh and flr^3 genes were obtained by crossing four day-old virgin flr^3 females with mwh males in a 2:1 ratio. Four days after fertilization, females were allowed to lay eggs in fresh yeast medium (25 g yeast and 4 mL sterile distilled water) for 8 h in order to obtain synchronized larvae. After 72 h, larvae were collected, washed with distilled water, and clustered in groups of 100 individuals. […] Adult flies were collected and stored in 70% ethanol until the wings were removed and mounted on slides using Faure’s solution. Mutant spots were assessed in both dorsal and ventral surfaces of the wings in a bright light microscope at 400× magnification. The frequencies of each type of mutant clone per wing (single, large or twin spot) were compared with the concurrent negative control [43]. All inconclusive and positive results (p > 0.05) were analysed with the nonparametric U-test of Mann, Whitney and Wilcoxon (α = β = 0.05).

SMILES: OC[C@H]1OC(O)[C@H](O)[C@@H](O)[C@@H]1O (stereo partly shown) [GLU, Glucose]
- Survival (%) Simple Treatment ([1]; GLU 2.7 mM): 98%
- Survival (%) Simple Treatment ([1]; GLU 11 mM): 92.65%
- Survival (%) Simple Treatment ([1]; GLU 21.86 mM): 90.32%
- Survival (%) Simple Treatment ([1]; GLU 87.5 mM): 70.3 * %
- Survival (%) Simple Treatment ([1]; GLU 350 mM): 65 * %
- cytotoxicity [2]: cytotoxicity was demonstrated
- IC50 ([3]; Homo sapiens, mean ± SD in Figure 3, read-out: IC50 (inhibitory concentration 50)): 42.7 mM
- internucleosomal DNA fragmentation (ladder pattern) [4]: did not induce DNA fragmentation
- methylation status of satellite alpha sequences ([5]; 350 mM GLU): hypermethylated
- methylation status of Alu sequences [6]: hypermethylated; also recorded: significantly increased

SMILES: NCCS(=O)(=O)O [TAU, 2-aminoethanesulfonic acid]
- lifespan of Drosophila ([7]; 1.6% TAU): decrease the lifespan
- adult lifespan of Drosophila ([7]; TAU 0.05 to 0.20 M): had no influence on adult lifespan
- estimated mean values of survival ([7]; TAU 8–24 mM): increased the estimated mean values of survival
- cell proliferation ([3]; 2 mM TAU): induced a decrease of cell proliferation
- cytotoxic activity ([3]; any assayed concentration): did not show cytotoxic activity
- IC50 (inhibitory concentration 50) ([3]; mean ± SD in Figure 3): not found
- protection of DNA against oxidative damage [8]: DNA-protected concentrations against oxidative damage
- internucleosomal DNA fragmentation (ladder pattern) [4]: did not induce DNA fragmentation
- induction of chromosome aberrations and sister chromatid exchanges [9]: not able to induce neither chromosome aberrations nor sister chromatid exchanges
- methylation status of satellite alpha sequences ([5]; both tested concentrations of TAU): significantly hypermethylated
- Twin Spots m = 5 ([10]; TAU 1 mM): 0 clones per wing
- Large Simple Spots (>2 Cells) m = 5 ([10]; TAU 1 mM): 0.08 (3) clones per wing
- Small Single Spots (1–2 Cells) m = 2 ([10]; TAU 1 mM): 0.027 (1) clones per wing
- Total Spots m = 2 ([10]; TAU 1 mM): 0.108 (4) clones per wing
- Twin Spots m = 5 ([10]; TAU 32 mM): 0 clones per wing
- Large Simple Spots (>2 Cells) m = 5 ([10]; TAU 32 mM): 0.05 (2) clones per wing
- Small Single Spots (1–2 Cells) m = 2 ([10]; TAU 32 mM): 0.15 (6) clones per wing
- Total Spots m = 2 ([10]; TAU 32 mM): 0.2 (8) clones per wing

Reference: paper PMC8069289 (Molecules, 2021)
